As a reminder, the IC50 is the concentration needed to halve the response being measured.

Drawing on ChEMBL document CHEMBL1126393, “Design, synthesis and activity against human cytomegalovirus of non-phosphorylatable analogs of toyocamycin, sangivamycin and thiosangivamycin” (Bioorg Med Chem Lett, 1992), this text covers Cytotoxicity, IC50 and SI for 16 compounds.

Assay [1] is described as follows: Cytotoxicity of compound in uninfected cells determined by examining the effect on growth of KBcells. The assay is classed as functional, Homo sapiens.
In assay [2] the test system is HFF. The assay can be described thus: In vitro inhibition of human cytomegalovirus in HFF cells by plaque reduction assay. It counts as functional, cell-based.
For assay [3], the system named is HFF. Put plainly: Cytotoxicity of compound in uninfected cells determined by examining the effect on growth of HFF cells. It counts as functional, Homo sapiens.
Assay [4] in a line: Selectivity index is the ratio of CC50 to IC50. It counts as functional.
The subject of assay [5] is HFF. Put plainly: Visual cytotoxicity of compound in uninfected cells determined by examining the effect on growth of HFF cells. It counts as functional, Homo sapiens.

SMILES strings stand for the structures.

For the compound `Cn1cc(C(N)=O)c2c(N)ncnc21`, the Cytotoxicity in assay [1] was >100 µM. Moreover, in the assay on HFF [2], the IC50 was > 100 µM.

For the compound `NC(=O)c1cn(COC(CO)CO)c2ncnc(N)c12`, the Cytotoxicity with HFF [3] is >100 µM. Besides, the IC50 with HFF [2] was > 100 µM.

The compound `NC(=S)c1cn(COCCO)c2ncnc(N)c12` displayed a Cytotoxicity in assay [1] of 115 µM. Moreover, in assay [4], the SI came to 13. This compound gave an IC50 in the assay with HFF [2] of 8.8 µM.

Consider `Cn1cc(C(=N)S)c2c(N)ncnc21`, for which the Cytotoxicity in assay [1] amounted to 14.7 µM. Moreover, the SI in assay [4] was 12. The compound also registered an IC50 in the assay on HFF [2] of 1.2 µM.

Consider `C=CCn1cc(C#N)c2c(N)ncnc21`, for which, in assay [1], the Cytotoxicity was >100 µM. In addition, the IC50 with HFF [2] was > 100 µM.

In assay [1], `C=CCn1cc(C(N)=O)c2c(N)ncnc21` returned a Cytotoxicity of 90 µM. Besides, the IC50 in the assay on HFF [2] was > 100 µM.

Consider `Cn1cc(C#N)c2c(N)ncnc21`, for which the Cytotoxicity in assay [1] was >100 µM. Also, the half-maximal inhibitory concentration (IC50) in the assay with HFF [2] is > 100 µM.

Turning to `C=CCn1cc(C(N)=S)c2c(N)ncnc21`, the Cytotoxicity in assay [1] turned out to be 19 µM. Moreover, in assay [4], the SI worked out at 9. The half-maximal inhibitory concentration (IC50) with HFF [2] is 2.1 µM.

Take `N#Cc1cn(COCCO)c2ncnc(N)c12`: the Cytotoxicity in the assay with HFF [5] is >100 µM. The IC50 in the assay with HFF [2] was > 100 µM.

In the case of `CCCn1cc(C#N)c2c(N)ncnc21`, the Cytotoxicity in assay [1] is >100 µM. Further, the midpoint of inhibition in the assay with HFF [2], the IC50, lay at 36 µM.

For the compound `CCCn1cc(C(=N)S)c2c(N)ncnc21`, the Cytotoxicity in assay [1] is 17 µM. Moreover, the SI in assay [4] is 14. In addition, inhibition in the assay on HFF [2] was half-maximal at 1.2 µM (IC50).

With `NC(=O)c1cn(COCCO)c2ncnc(N)c12`, in the assay with HFF [3], the Cytotoxicity is >100 µM. The IC50 in the assay on HFF [2] is > 100 µM.

As to `Nc1nc2c(ncn2COC(CO)CO)c(=O)[nH]1` [GANCICLOVIR], in assay [1], the Cytotoxicity is >100 µM. In the assay with HFF [2], this compound gave an IC50 of 8.4 µM.

Take `NC(=S)c1cn(COC(CO)CO)c2ncnc(N)c12`: the Cytotoxicity in the assay with HFF [3] is >100 µM. The IC50 in the assay on HFF [2] is 6.2 µM.

Compound `CCCn1cc(C(N)=O)c2c(N)ncnc21` displayed a Cytotoxicity in assay [1] of 90 µM. The IC50 in the assay on HFF [2] was > 100 µM.

For `N#Cc1cn(COC(CO)CO)c2ncnc(N)c12`, the Cytotoxicity with HFF [5] is >100 µM. For the same compound, in the assay on HFF [2], the IC50 was > 100 µM.
